# Measured values reported in patent US20150197492A1, “NOVEL INDENO[1,2-c]QUINOLIN-11-ONE DERIVATIVES, PREPARATION METHOD AND APPLICATION THEREOF” (National Defense Medical Center, priority 2014, published 2015).
# How the values were obtained:
# Format in all cases: cell-based
# human PC-3 cells = assay: Sulforhodamine B (SRB) assay, cytotoxicity against PC-3 cells; conditions: SRB assay, PC-3 cells; for IC50: Homo sapiens, 48 hours, read-out: IC50
# How it was run: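 PC-3 cells in 5% FBS were fixed with 10% TCA after 24 h as T0, then treated with compound for 48 h, fixed, stained with 0.4% SRB in 1% acetic acid and solubilized in 10 mmol/L Trizma base. Absorbance was read at 515 nm. GI% = 100−[(Tx−T0)/(C−T0)]×100, and IC50 is the concentration halving total protein.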
# [1] = system: 55 to 60 cancer cell lines; conditions: 10 μM, 48 hours, all tested cell lines
# CCRF-CEM = assay: cells; conditions: CCRF-CEM (Leukemia), 10 μM, 48 hours
# HOP-62 = assay: cells; conditions: HOP-62 (Non-Small Cell Lung Cancer), 10 μM, 48 hours
# HOP-92 = assay: cells; conditions: HOP-92 (Non-Small Cell Lung Cancer), 10 μM, 48 hours
# NCI-H226 = assay: cells; conditions: NCI-H226 (Non-Small Cell Lung Cancer), 10 μM, 48 hours
# NCI-H522 = assay: cells; conditions: NCI-H522 (Non-Small Cell Lung Cancer), 10 μM, 48 hours
# HCT-15 = assay: cells; conditions: HCT-15 (Colon Cancer), 10 μM, 48 hours
# KM12 = assay: cells; conditions: KM12 (Colon Cancer), 10 μM, 48 hours
# SF-295 = assay: cells; conditions: SF-295 (CNS Cancer), 10 μM, 48 hours
# SF-539 = assay: cells; conditions: SF-539 (CNS Cancer), 10 μM, 48 hours
# SNB-19 = assay: cells; conditions: SNB-19 (CNS Cancer), 10 μM, 48 hours
# MALME-3M = assay: cells; conditions: MALME-3M (Melanoma), 10 μM, 48 hours
# M14 = assay: cells; conditions: M14 (Melanoma), 10 μM, 48 hours
# SK-MEL-2 = assay: cells; conditions: SK-MEL-2 (Melanoma), 10 μM, 48 hours
# SK-MEL-5 = assay: cells; conditions: SK-MEL-5 (Melanoma), 10 μM, 48 hours
# UACC-257 = assay: cells; conditions: UACC-257 (Melanoma), 10 μM, 48 hours
# OVCAR-5 = assay: cells; conditions: OVCAR-5 (Ovarian Cancer), 10 μM, 48 hours
# OVCAR-8 = assay: cells; conditions: OVCAR-8 (Ovarian Cancer), 10 μM, 48 hours
# NCI/ADR-RES = assay: cells; conditions: NCI/ADR-RES (Ovarian Cancer), 10 μM, 48 hours
# 786-0 = assay: cells; conditions: 786-0 (Renal Cancer), 10 μM, 48 hours
# ACHN = assay: cells; conditions: ACHN (Renal Cancer), 10 μM, 48 hours
# CAKI-1 = assay: cells; conditions: CAKI-1 (Renal Cancer), 10 μM, 48 hours
# RXF 393 = assay: cells; conditions: RXF 393 (Renal Cancer), 10 μM, 48 hours
# SN12C = assay: cells; conditions: SN12C (Renal Cancer), 10 μM, 48 hours
# UO-31 = assay: cells; conditions: UO-31 (Renal Cancer), 10 μM, 48 hours
# DU-145 = assay: cells; conditions: DU-145 (Prostate Cancer), 10 μM, 48 hours
# MCF7 = assay: cells; conditions: MCF7 (Breast Cancer), 10 μM, 48 hours
# T-47D = assay: cells; conditions: T-47D (Breast Cancer), 10 μM, 48 hours
# EKVX = assay: NCI cancer cell cytotoxicity assay, Non-Small Cell Lung Cancer EKVX; conditions: 10 μM, 48 hours
SMILES,Mean (mean growth percentage of the tested cancer cell lines) [1],growth percentage (CCRF-CEM),growth percentage (HOP-62),growth percentage (NCI-H226),growth percentage (NCI-H522),growth percentage (HCT-15),growth percentage (KM12),growth percentage (SF-295),growth percentage (SF-539),growth percentage (SNB-19),growth percentage (MALME-3M),growth percentage (M14),growth percentage (SK-MEL-2),growth percentage (SK-MEL-5),growth percentage (UACC-257),growth percentage (OVCAR-5),growth percentage (OVCAR-8),growth percentage (NCI/ADR-RES),growth percentage (786-0),growth percentage (ACHN),other results
"O=C1c2cc(Cl)ccc2-c2c(N3CCOCC3)nc3ccccc3c21 [SJ-8, 9-Chloro-6-morpholino-11H-indeno[1,2-c]quinolin-11-one]",93.66%,88.85%,78.71%,87.21%,91.11%,80.29%,109.99%,102.43%,96.24%,100.01%,136.93%,106.99%,104.29%,99.19%,103.31%,90.30%,95.25%,94.32%,103.71%,81.66%,IC50 (human PC-3 cells): > 10 µM; growth percentage (HOP-92): 66.08%; growth percentage (CAKI-1): 94.99%; growth percentage (RXF 393): 114.61%; growth percentage (SN12C): 96.95%; growth percentage (UO-31): 45.74%; growth percentage (DU-145): 119.02%; growth percentage (MCF7): 52.31%; growth percentage (T-47D): 88.81%
"CN1CCN(c2nc3ccccc3c3c2-c2ccc(Cl)cc2C3=O)CC1 [SJ-12, 9-Chloro-6-(4-methylpiperazin-1-yl)-11H-indeno[1,2-c]quinolin-11-one]",88.15%,92.44%,61.42%,86.17%,96.62%,92.83%,99.06%,90.01%,95.23%,85.41%,106.59%,106.31%,104.36%,97.67%,95.34%,99.31%,87.51%,88.19%,89.51%,88.10%,Toxicity (%) (human PC-3 cells): 0%; GI % (10 μM) (human PC-3 cells; 10 μM): 39.4%; growth percentage (HOP-92): 38.50%; growth percentage (CAKI-1): 83.81%; growth percentage (RXF 393): 94.00%; growth percentage (SN12C): 83.57%; growth percentage (UO-31): 47.60%; growth percentage (DU-145): 102.37%; growth percentage (MCF7): 68.30%; growth percentage (T-47D): 76.27%
"O=C1c2cc(Cl)ccc2-c2c(SCCO)nc3ccccc3c21 [SJ-25, 6-(2-Hydroxyethylthio)-9-chloro-11H-indeno[1,2-c]quinolin-11-one]",79.52%,71.56%,91.46%,80.52%,68.89%,80.10%,84.62%,73.28%,100.05%,89.19%,107.23%,98.89%,95.85%,68.56%,106.91%,112.54%,90.21%,73.58%,100.58%,88.12%,IC50 (human PC-3 cells): > 10 µM; growth percentage (EKVX): 30.15%; growth percentage (CAKI-1): 41.86%; growth percentage (RXF 393): 79.39%; growth percentage (SN12C): 84.58%; growth percentage (UO-31): 56.23%; growth percentage (DU-145): 92.27%; growth percentage (MCF7): 67.82%; growth percentage (T-47D): 63.89%
"O=C1c2cc(Cl)ccc2-c2c(O)nc3ccccc3c21 [SJ-26, 6-Hydroxy-9-chloro-11H-indeno[1,2-c]quinolin-11-one]",96.60%,105.78%,91.26%,85.66%,92.22%,108.54%,102.73%,92.48%,105.79%,99.28%,103.37%,108.50%,117.12%,84.87%,106.31%,126.77%,107.63%,97.00%,114.55%,104.75%,growth percentage (EKVX): 72.14%; growth percentage (CAKI-1): 71.62%; growth percentage (RXF 393): 99.93%; growth percentage (SN12C): 96.69%; growth percentage (UO-31): 70.50%; growth percentage (DU-145): 111.80%; growth percentage (MCF7): 68.09%; growth percentage (T-47D): 67.23%
